Key:
[1] = test system: lambs with acute pulmonary hypertension; conditions: inhaled microparticles, awake lambs, U-46619-induced pulmonary hypertension; cited from earlier work
[2] = target: T1, soluble guanylate cyclase (sGC) (Homo sapiens (Human), UniProt Q02108+Q02153); experiment: sGC-HEK-cGMP assay with SNP incubation, LC/MS detection (Example 2A); assay type: cell-based; conditions: HEK293 cells, 10 μM SNP, LC/MS detection; for Emax: 100% = BAY 41-2272 at 10 μM, read-out: HEK assay Emax - unconstrained (%)
T1 sequence (Q02153 whole entry): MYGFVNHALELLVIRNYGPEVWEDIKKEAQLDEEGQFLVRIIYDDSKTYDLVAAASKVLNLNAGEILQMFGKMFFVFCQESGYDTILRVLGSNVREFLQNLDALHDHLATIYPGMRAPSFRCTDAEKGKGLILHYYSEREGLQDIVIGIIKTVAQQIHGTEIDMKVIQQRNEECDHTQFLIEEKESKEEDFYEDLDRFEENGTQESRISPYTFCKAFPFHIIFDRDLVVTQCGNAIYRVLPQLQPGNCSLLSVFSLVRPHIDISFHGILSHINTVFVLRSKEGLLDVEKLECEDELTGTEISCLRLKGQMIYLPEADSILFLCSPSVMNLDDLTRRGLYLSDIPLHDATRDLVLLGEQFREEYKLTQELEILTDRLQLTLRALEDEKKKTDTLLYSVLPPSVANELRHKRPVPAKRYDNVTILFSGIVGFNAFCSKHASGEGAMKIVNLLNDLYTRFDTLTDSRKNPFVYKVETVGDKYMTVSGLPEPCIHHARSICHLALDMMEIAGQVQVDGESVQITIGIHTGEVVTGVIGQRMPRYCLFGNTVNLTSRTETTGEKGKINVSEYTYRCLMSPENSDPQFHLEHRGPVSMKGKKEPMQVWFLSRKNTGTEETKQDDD
T1 sequence (Q02108 whole entry): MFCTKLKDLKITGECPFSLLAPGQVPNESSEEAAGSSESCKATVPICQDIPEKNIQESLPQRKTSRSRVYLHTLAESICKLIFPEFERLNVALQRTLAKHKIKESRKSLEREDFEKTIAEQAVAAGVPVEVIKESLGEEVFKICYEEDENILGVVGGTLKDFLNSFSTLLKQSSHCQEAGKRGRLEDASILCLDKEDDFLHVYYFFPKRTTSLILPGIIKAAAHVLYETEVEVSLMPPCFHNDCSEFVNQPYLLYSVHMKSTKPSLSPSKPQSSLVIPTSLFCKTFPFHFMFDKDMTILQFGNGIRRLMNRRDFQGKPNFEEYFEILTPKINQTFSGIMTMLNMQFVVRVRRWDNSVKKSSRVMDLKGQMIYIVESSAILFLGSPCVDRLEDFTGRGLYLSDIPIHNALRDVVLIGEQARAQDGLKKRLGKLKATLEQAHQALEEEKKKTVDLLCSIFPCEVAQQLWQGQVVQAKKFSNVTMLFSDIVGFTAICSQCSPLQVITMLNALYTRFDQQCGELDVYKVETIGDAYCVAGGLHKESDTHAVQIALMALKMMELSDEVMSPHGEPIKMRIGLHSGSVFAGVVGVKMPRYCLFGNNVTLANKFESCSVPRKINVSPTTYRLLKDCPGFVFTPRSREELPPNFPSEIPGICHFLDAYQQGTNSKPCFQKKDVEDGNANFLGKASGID
In short: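 HEK293 cells with endogenous sGC were pretreated 15 min at 37 °C with 0.5 mM IBMX, then exposed 10 min at 37 °C to compound (added from 0.0001–30 μM solutions) plus SNP (from 10 μM solution). After 0.1 M HCl lysis, cGMP was quantified by LC/MS against a standard curve.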

[3] = target: T1, soluble guanylate cyclase (sGC); experiment: sGC-HEK-cGMP assay with SNP incubation, HTRF detection (Example 2B); assay type: cell-based; conditions: HEK293 cells, 10 μM SNP; for Emax: 100% = BAY 41-2272 at 10 μM + 100 μM SNP, read-out: HEK assay Emax - unconstrained (%); for EC50: read-out: HEK assay EC50 - unconstrained
Description: Human embryonic kidney cells (HEK293), endogenously expressing soluble guanylate cyclase (sGC), were used to evaluate the activity of test compounds. Compounds stimulating the sGC enzyme should cause an increase in the intracellular concentration of cGMP. HEK 293 cells were seeded in Dulbecco's Modification of Eagle's Medium supplemented with fetal bovine serum (10% final) and L-glutamine (2 mM final) in a 200 μL volume at a density of 1×10^5 cells/well in a poly-D-lysine coated 96 well flat bottom plate and grown overnight at 37° C. Medium was aspirated and cells were washed with 1× Hank's Buffered Saline Salt Solution (200 μL). Cells were then incubated for 15 minutes at 37° C. with 200 μL of a 0.5 mM 3-isobutyl-1-methylxanthine (IBMX) solution. Test article and sodium nitroprusside solutions were then added to the assay mixture (2 μL each) and the resulting mixture incubated at 37° C. for 10 minutes. After the 10 minute incubation, the assay mixture was aspirated and 0.1M HCl (200 μL) was added to the cells. The plate was incubated at 4° C. for 30 minutes in the 0.1M HCl to stop the reaction and lyse the cells. The plates were then centrifuged at 1,200 g for 5 minutes at room temperature. GMP levels were determined using a cGMP HTRF assay (Cisbio Product #62GM2PEC). For each sample, 5 uL of HEK assay supernatant was diluted 1:5 in HTRF kit assay diluent and transferred to a well of the assay plate, and the HTRF assay was performed according to the HTRF kit manufacturer's instructions. Sample calculations were performed using high and low controls, where high control was supernatant from HEK assay performed in the presence of 10 uM Bay 41-2272+100 uM SNP, and the low control was the supernatant from the HEK assay performed in the presence of vehicle. A cGMP standard solution was prepared in 0.1 M HCl and diluted in order to perform a cGMP standard curve using the HTRF assay. Using Mean Ratio data from the HTRF assay, sample date were normalized according to the equation: 100*(Sample−Low Control)/(High Control−Low Control). Data were fit to a 3-parameter log agonist dose response (Top (% EMax), Bottom, log EC50) using Graphpad (Prism Software). Data in Table 4 was obtained using this modified assay procedure. (x μM concentration for test article solution and 10 μM concentration for SNP solution; wherein x is one of the following concentrations: 30 μM, 10 μM, 3 μM, 1 μM, 0.3 μM, 0.1 μM, 0.03 μM, 0.01 μM, 0.003 μM, 0.001 μM, 0.0003 μM and 0.01 nM.

[4] = target: T1, soluble guanylate cyclase (sGC); experiment: sGC-HEK-cGMP assay, new protocol with DETA-NONOate, LC/MS detection (Example 2C); assay type: cell-based; conditions: read-out: Absolute EC50 (uM) - binned
Sprague-Dawley rats = experiment: Blood pressure change in Sprague-Dawley rats (Example 4); assay type: in vivo, rat; conditions: conscious male Sprague-Dawley rats, PO, 10 mg/kg
Description: Male rats (250-350 g body weight, supplied by Harlan Laboratories) were anesthetized with ketamine/xylazine and a heparinized saline fluid filled catheter implanted into the right femoral artery. The catheter was exteriorized between the scapula, capped, and the animal allowed to recover for at least 7 days post surgery prior to any compound testing. Prior to testing animals were maintained on normal diet, with free access to drinking water, under a 12 hour light-dark cycle.
On the day of experimentation, under inhaled isoflurane anesthesia, the catheter was uncapped and connected to a tether (Instech Labs) and pressure transducer (Harvard Apparatus). Blood pressure and heart rate were subsequently captured and analyzed with a dedicated data capture system (PowerLab, ADInstruments). Data sampling rates were set at 1 cycle per second. Once connected, each rat was allowed to recover from anesthesia and baseline blood pressure and heart rate levels were established in these conscious, freely-moving animals. Once baseline was established either vehicle (0.5% methylcellulose or 100% PEG400) or test article was administered orally (PO, 10 mg/kg) and the effects on blood pressure and heart rate monitored for up to 24 hours.
Data are reported as hourly averages and changes in blood pressure are calculated from subtracting individual baseline on an hourly basis.

[5] = top of curve not fitted to 100%, read-out: HEK assay EC50 - unconstrained
[6] = top of curve fitted to 100%, read-out: HEK assay EC50 - constrained

| SMILES | pulmonary vasodilation [1] | Emax [2] [%] | Emax [3] [%] | EC50 [2, 5] [µM] | EC50 [3] [µM] | EC50 [4] [µM] | EC50 [2, 6] [µM] | Rat Mean Arterial Pressure peak change from baseline at 10 mpk (Sprague-Dawley rats) |
| --- | --- | --- | --- | --- | --- | --- | --- | --- |
| Nc1nc(-c2nn(Cc3ccccc3F)c3ncccc23)ncc1C1CC1 [BAY 41-2272] | dose dependent pulmonary vasodilation |  |  |  |  |  |  |  |
| Nc1nc(-c2nn(Cc3ccccc3F)c3ncccc23)nc(N)c1N1CCOCC1 [BAY 41-8543] | dose dependent pulmonary vasodilation |  |  |  |  |  |  |  |
| Fc1ccccc1Cn1nc(-c2ncc(F)c(N3CCOCC3)n2)cc1-c1ccon1 [Compound I-3] |  | 60 to 80 | 80 to 100 |  |  |  |  |  |
| Fc1ccccc1Cn1nc(-c2ncc(F)c(N3CCn4c(nnc4C(F)(F)F)C3)n2)cc1-c1ccon1 [Compound I-16] |  | 100 to 120 | 100 to 120 | 0.001 to 0.1 | 0.001 to 0.1 | < 0.1 |  |  |
| N#Cc1cnc(-c2cc(-c3ccon3)n(Cc3ccccc3F)n2)nc1N1CCOCC1 [Compound I-29] |  |  | 40 to 60 |  | 0.1 to 0.5 |  |  |  |
| Fc1ccccc1Cn1nc(-c2ncc(F)c(NC3CCNCC3)n2)cc1-c1ccon1 [Compound I-36] |  | 40 to 60 | 80 to 100 | 1 to 5 | 0.1 to 0.5 |  |  |  |
| COC(=O)Nc1nc(-c2cc(-c3ccon3)n(Cc3ccccc3F)n2)ncc1F [Compound I-51] |  |  | 80 to 100 |  | 0.5 to 1 |  | 1 to 5 |  |
| O=C(O)CNc1nc(-c2cc(-c3ccon3)n(Cc3ccccc3F)n2)ncc1F [Compound I-67] |  | 80 to 100 | 60 to 80 | 5 to 10 | 1 to 5 | > 1 | > 10 |  |
| CC(C)[C@@H](C(=O)O)N(C)c1nc(-c2cc(-c3ccon3)n(Cc3ccccc3F)n2)ncc1F [Compound I-89] |  | 60 to 80 |  | 0.001 to 0.1 |  | < 0.1 |  | C (C = peak change from baseline at 10 mpk < −20) |
| O=C(O)C1(c2ccccc2)CCN(c2nc(-c3cc(-c4ccon4)n(Cc4ccccc4F)n3)ncc2F)CC1 [Compound I-186] |  | 80 to 100 |  | 0.001 to 0.1 |  | < 0.1 |  | B (B = −20 ≤ peak change from baseline at 10 mpk ≤ −10) |
| CC(C)[C@@H](C(=O)NS(=O)(=O)C1CC1)N(C)c1nc(-c2cc(-c3ccon3)n(Cc3ccccc3F)n2)ncc1F [Compound I-187] |  | 80 to 100 |  | 0.001 to 0.1 |  | < 0.1 |  | A (A = −10 < peak change from baseline at 10 mpk < 0) |
| CC(C)[C@@H](C(=O)O)N(C)c1nc(-c2nc(-c3ccon3)n(Cc3ccccc3F)n2)ncc1F [Compound I-200] |  | 80 to 100 | 100 to 120 | 5 to 10 | 1 to 5 | > 1 | 1 to 5 |  |
| CC(C)C[C@H](C(=O)O)N(C)c1nc(-c2cc(-c3ccon3)n(Cc3ccccc3F)n2)ncc1F [Compound I-221] |  | 0 to 10 | 100 to 120 | > 10 | 1 to 5 | < 0.1 |  |  |
| CC(C)[C@H](CN(C)c1nc(-c2cc(-c3ccon3)n(Cc3ccccc3F)n2)ncc1F)C(=O)O [Compound I-248] |  | 80 to 100 | 80 to 100 | 0.001 to 0.1 | 0.001 to 0.1 |  |  | C (C = peak change from baseline at 10 mpk < −20) |
| CC1(C(=O)O)CCN(c2nc(-c3nc(-c4ccon4)n(Cc4ccccc4F)n3)ncc2F)CC1 [Compound I-249] |  | 60 to 80 | 100 to 120 | 1 to 5 | 0.5 to 1 |  |  |  |
| CC(C)[C@@H](CN(C)c1nc(-c2cc(-c3ccon3)n(Cc3ccccc3F)n2)ncc1F)C(=O)O [Compound I-253] |  | 60 to 80 | 80 to 100 | 0.001 to 0.1 | 0.001 to 0.1 |  |  | B (B = −20 ≤ peak change from baseline at 10 mpk ≤ −10) |
| O=C(O)[C@H]1[C@@H]2CN(c3nc(-c4cc(-c5ccon5)n(Cc5ccccc5F)n4)ncc3F)C[C@@H]21 [Compound I-271] |  |  | 80 to 100 |  | 0.001 to 0.1 |  |  |  |
| CC(C)C1(C(=O)O)CCN(c2nc(-c3cc(-c4ccon4)n(Cc4ccccc4F)n3)ncc2F)CC1 [Compound I-306] |  | 80 to 100 |  | 0.001 to 0.1 |  | < 0.1 |  | B (B = −20 ≤ peak change from baseline at 10 mpk ≤ −10) |
| OCC(CO)Nc1nc(-c2cc(-c3ccon3)n(Cc3ccccc3F)n2)ncc1F [Compound I-315] |  |  |  |  |  | < 0.1 |  | C (C = peak change from baseline at 10 mpk < −20) |
| OC[C@H](O)CNc1nc(-c2cc(-c3ccon3)n(Cc3ccccc3F)n2)ncc1F [Compound I-316] |  |  |  |  |  | < 0.1 |  | C (C = peak change from baseline at 10 mpk < −20) |
| OC(CNc1nc(-c2cc(-c3ccon3)n(Cc3ccccc3F)n2)ncc1F)(C(F)(F)F)C(F)(F)F [Compound I-324] |  |  |  |  |  | 0.101 to 1 |  | C (C = peak change from baseline at 10 mpk < −20) |
| OC(CNc1nc(-c2cc(-c3ccon3)n(Cc3ccccc3F)n2)ncc1F)C(F)(F)F (stereo not drawn) [Compound I-337] |  |  |  |  |  | < 0.1 |  | C (C = peak change from baseline at 10 mpk < −20) |
| C[C@H]1CCCN(c2nc(-c3cc(-c4ccon4)n(Cc4ccccc4F)n3)ncc2F)[C@H]1c1nn[nH]n1 [Compound I-341] |  |  |  |  |  | < 0.1 |  | A (A = −10 < peak change from baseline at 10 mpk < 0) |
| CN(CC1(C(=O)O)CCC1)c1nc(-c2cc(-c3ccon3)n(Cc3ccccc3F)n2)ncc1F [Compound I-342] |  |  |  |  |  | < 0.1 |  | C (C = peak change from baseline at 10 mpk < −20) |
| O=S(=O)(NC1CN(c2nc(-c3cc(-c4ccon4)n(Cc4ccccc4F)n3)ncc2F)C1)C(F)(F)F [Compound I-388] |  |  |  |  |  | < 0.1 |  | B (B = −20 ≤ peak change from baseline at 10 mpk ≤ −10) |
| CC(O)(CNc1nc(-c2cc(-c3ccon3)n(Cc3ccccc3F)n2)ncc1F)C(N)=O (stereo not drawn) [Compound I-389] |  |  |  |  |  | < 0.1 |  | C (C = peak change from baseline at 10 mpk < −20) |
| O=C(Nc1ccnc(-c2cc(-c3ccon3)n(Cc3ccccc3F)n2)n1)C(O)(C(F)(F)F)C(F)(F)F [Compound I-400] |  |  |  |  |  | 0.101 to 1 |  | B (B = −20 ≤ peak change from baseline at 10 mpk ≤ −10) |
| NC(=O)C(O)(CNc1nc(-c2cc(-c3ccon3)n(Cc3ccccc3F)n2)ncc1F)C(F)(F)F (stereo not drawn) [Compound I-405] |  |  |  |  |  | 0.101 to 1 |  | C (C = peak change from baseline at 10 mpk < −20) |

Reference: patent US10183021B2, “sGC stimulators” (Ironwood Pharmaceuticals, Inc., priority 2013, dated 2019)
